# Test results from patent US9708325B2, “Sulfonimidoylpurinone compounds and derivatives for the treatment and prophylaxis of virus infection” (Hoffmann-La Roche Inc., priority 2015, dated 2017).
# Where two headings read alike, the source gives them in different places.
# Experiments:
# LYSA solubility = format: physicochemical; details: for LYSA: 0.05 M phosphate buffer (pH 6.5); for solubility thermodynamic: 0.05 M phosphate buffer, pH 6.5, aqueous buffer, thermodynamic from solid
# Description: LYSA solubility assay is used to determine the aqueous solubility of a compound. Samples were prepared in duplicate from 10 mM DMSO stock solution. […] After one night, the solutions were filtered using a microtiter filter plate. Then the filtrate and its 1/10 dilution were analyzed by HPLC-UV.
# [1] = Metabolic stability in human liver microsomes; details: 1 μM test compound, 0.5 mg/mL microsomal protein; 6.15 mL/min/kg is the limitation of assay sensitivity
# Description: The human microsomal stability assay is used for early assessment of metabolic stability of a test compound in human liver microsomes.
# Human liver microsomes (Cat. NO.: 452117, Corning, USA; Cat. NO.: H2610, Xenotech, USA) were preincubated with test compound for 10 minutes at 37° C. in 100 mM potassium phosphate buffer, pH 7.4. The reactions were initiated by adding NADPH regenerating system. The final incubation mixtures contained 1 μM test compound, 0.5 mg/mL liver microsomal protein, 1 mM MgCL2, 1 mM NADP, 1 unit/mL isocitric dehydrogenase and 6 mM isocitric acid in 100 mM potassium phosphate buffer, pH 7.4. After incubation times of 0, 3, 6, 9, 15 and 30 minutes at 37° C., 300 μL of cold ACN (including internal standard) was added to 100 μL incubation mixture to terminate the reaction. Following precipitation and centrifugation, the amount of compound remaining in the samples were determined by LC-MS/MS. Controls of no NADPH regenerating system at zero and 30 minutes were also prepared and analyzed.
# human TLR7 = human TLR7 (Homo sapiens (Human), UniProt Q9NYK1); assay: HEK-Blue-hTLR7 cells assay (SEAP reporter); format: cell-based; details: 20 hrs
# Sequence of human TLR7 (Q9NYK1 27-1049): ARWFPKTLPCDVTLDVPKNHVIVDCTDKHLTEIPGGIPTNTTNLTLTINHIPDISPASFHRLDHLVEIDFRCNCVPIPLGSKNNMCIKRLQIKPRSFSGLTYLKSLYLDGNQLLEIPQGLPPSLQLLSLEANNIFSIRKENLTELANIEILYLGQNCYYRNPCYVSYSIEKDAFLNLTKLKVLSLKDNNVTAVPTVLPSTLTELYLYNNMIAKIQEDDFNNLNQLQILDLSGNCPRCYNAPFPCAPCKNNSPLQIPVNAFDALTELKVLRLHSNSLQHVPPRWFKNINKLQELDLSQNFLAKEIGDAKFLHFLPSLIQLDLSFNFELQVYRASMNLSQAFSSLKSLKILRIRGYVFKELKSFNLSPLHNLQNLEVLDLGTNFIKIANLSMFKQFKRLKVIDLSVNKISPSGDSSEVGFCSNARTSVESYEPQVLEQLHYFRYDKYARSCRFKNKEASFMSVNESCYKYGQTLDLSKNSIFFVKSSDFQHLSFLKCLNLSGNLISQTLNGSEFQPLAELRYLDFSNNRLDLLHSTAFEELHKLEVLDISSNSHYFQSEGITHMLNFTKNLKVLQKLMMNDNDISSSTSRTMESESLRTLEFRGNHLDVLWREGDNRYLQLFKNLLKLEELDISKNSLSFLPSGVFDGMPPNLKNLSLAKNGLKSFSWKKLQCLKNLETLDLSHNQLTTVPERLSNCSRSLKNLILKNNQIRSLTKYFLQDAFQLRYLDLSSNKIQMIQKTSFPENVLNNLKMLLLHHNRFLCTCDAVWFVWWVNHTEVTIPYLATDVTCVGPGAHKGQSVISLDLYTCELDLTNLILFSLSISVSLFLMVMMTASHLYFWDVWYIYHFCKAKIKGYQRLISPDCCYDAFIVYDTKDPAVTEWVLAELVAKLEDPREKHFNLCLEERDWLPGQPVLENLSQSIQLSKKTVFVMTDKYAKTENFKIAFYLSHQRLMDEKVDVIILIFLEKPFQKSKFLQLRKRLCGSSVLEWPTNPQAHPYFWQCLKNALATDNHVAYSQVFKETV
# Description: A stable HEK-Blue-hTLR7 cell line was purchased from InvivoGen (Cat.#: hkb-htlr7, San Diego, Calif., USA). These cells were designed for studying the stimulation of human TLR7 by monitoring the activation of NF-κB. […] Therefore the reporter expression was regulated by the NF-κB promoter upon stimulation of human TLR7 for 20 hrs. The cell culture supernatant SEAP reporter activity was determined using QUANTI-Blue™ kit (Cat.#: rep-qb1, Invivogen, San Diego, Ca, USA) at a wavelength of 640 nm, a detection medium that turns purple or blue in the presence of alkaline phosphatase.
# HEK-Blue-hTLR7 cells were incubated at a density of 250,000˜450,000 cells/mL in a volume of 180 μL in a 96-well plate in Dulbecco's Modified Eagle's medium (DMEM) containing 4.5 g/L glucose, 50 U/mL penicillin, […], […], 2 mM L-glutamine, 10% (V/V) heat-inactivated fetal bovine serum for 24 hrs. Then the HEK-Blue-hTLR-7 cells were incubated with addition of 20 μL test compound in a serial dilution in the presence of final DMSO at 1% and perform incubation under 37° C. in a CO2 incubator for 20 hrs. Then 20 μL of the supernatant from each well was incubated with 180 μL Quanti-blue substrate solution at 37° C. for 2 hrs and the absorbance was read at 620˜655 nm using a spectrophotometer. The signalling pathway that TLR7 activation leads to downstream NF-κB activation has been widely accepted, and therefore similar reporter assay was also widely used for evaluating TLR7 agonist (Tsuneyasu Kaisho and Takashi Tanaka, Trends in Immunology, Volume 29, Issue 7, July 2008, […]; Hiroaki Hemmi et al, Nature Immunology 3, 196-200 (2002)).
# [2] = read-out: HEK-Blue-hTLR7 (EC50 (μM))
compound,measurement,setting,value
"CS(=N)(=O)c1nc(N)c2[nH]c(=O)n(Cc3ccccc3)c2n1 (single isomer, unassigned) [Example 1-A, 6-Amino-9-benzyl-2-(methylsulfonimidoyl)-7H-purin-8-one]",LYSA,LYSA solubility,85 µg/mL
same,Human Liver Microsome Clearance,[1],<6.15 mL/min/kg
"CCS(=N)(=O)c1nc(N)c2[nH]c(=O)n(Cc3ccc(C)cc3)c2n1 (single isomer, unassigned) [Example 71-B, 6-Amino-2-(ethylsulfonimidoyl)-9-(p-tolylmethyl)-7H-purin-8-one]",LYSA,LYSA solubility,13 µg/mL
same,Human Liver Microsome Clearance,[1],<6.15 mL/min/kg
"CCS(=N)(=O)c1nc(N)c2[nH]c(=O)n(Cc3ccc(F)cc3)c2n1 (single isomer, unassigned) [Example 72-A, 6-Amino-2-(ethylsulfonimidoyl)-9-[(4-fluorophenyl)methyl]-7H-purin-8-one]",solubility thermodynamic,LYSA solubility,90 µg/mL
same,Human Liver Microsome Clearance,[1],<6.15 mL/min/kg
"CCS(=N)(=O)c1nc(N)c2[nH]c(=O)n(Cc3ccc(F)cc3)c2n1 (single isomer, unassigned) [Example 72-B, 6-Amino-2-(ethylsulfonimidoyl)-9-[(4-fluorophenyl)methyl]-7H-purin-8-one]",LYSA,LYSA solubility,115 µg/mL
same,Human Liver Microsome Clearance,[1],<6.15 mL/min/kg
"CCS(=N)(=O)c1nc(N)c2[nH]c(=O)n(Cc3ccccc3)c2n1 (centres unmarked) [Example 2, 6-Amino-9-benzyl-2-(ethylsulfonimidoyl)-7H-purin-8-one]",solubility thermodynamic,LYSA solubility,29 µg/mL
same,Human Liver Microsome Clearance,[1],<6.15 mL/min/kg
same,EC50,human TLR7; [2],0.2 µM
"COCCS(=N)(=O)c1nc(N)c2[nH]c(=O)n(Cc3ccccc3)c2n1 (centres unmarked) [Example 3, 6-Amino-9-benzyl-2-(2-methoxyethylsulfonimidoyl)-7H-purin-8-one]",solubility thermodynamic,LYSA solubility,300 µg/mL
same,Human Liver Microsome Clearance,[1],<6.15 mL/min/kg
same,EC50,human TLR7; [2],0.33 µM
"CCCCS(=N)(=O)c1nc(N)c2[nH]c(=O)n(Cc3ccccc3)c2n1 (centres unmarked) [Example 5, 6-Amino-9-benzyl-2-(butylsulfonimidoyl)-7H-purin-8-one]",solubility thermodynamic,LYSA solubility,40 µg/mL
same,Human Liver Microsome Clearance,[1],<6.15 mL/min/kg
same,EC50,human TLR7; [2],0.32 µM
"CCCS(=N)(=O)c1nc(N)c2[nH]c(=O)n(Cc3ccc(C#N)cc3)c2n1 (centres unmarked) [Example 32, 4-[[6-Amino-8-oxo-2-(propylsulfonimidoyl)-7H-purin-9-yl]methyl]benzonitrile]",solubility thermodynamic,LYSA solubility,18 µg/mL
same,Human Liver Microsome Clearance,[1],<6.15 mL/min/kg
same,EC50,human TLR7; HEK-Blue-hTLR7 (EC50 (μM)),0.054 µM
"CCCS(=N)(=O)c1nc(N)c2[nH]c(=O)n(Cc3ccc(C(N)=O)cc3)c2n1 (centres unmarked) [Example 33, 4-[[6-amino-8-oxo-2-(propylsulfonimidoyl)-7H-purin-9-yl]methyl]benzamide]",solubility thermodynamic,LYSA solubility,79 µg/mL
same,Human Liver Microsome Clearance,[1],<6.15 mL/min/kg
same,EC50,human TLR7; [2],0.066 µM
"CCCS(=N)(=O)c1nc(N)c2[nH]c(=O)n(Cc3ccnc(C)c3)c2n1 (centres unmarked) [Example 35, 6-Amino-9-[(2-methyl-4-pyridyl)methyl]-2-(propylsulfonimidoyl)-7H-purin-8-one]",Human Liver Microsome Clearance,[1],<6.15 mL/min/kg
same,EC50,human TLR7; [2],0.12 µM
"CCCS(=N)(=O)c1nc(N)c2[nH]c(=O)n(Cc3ccc(S(C)(=O)=O)cc3)c2n1 (centres unmarked) [Example 37, 6-Amino-9-[(4-methylsulfonylphenyl)methyl]-2-(propylsulfonimidoyl)-7H-purin-8-one]",Human Liver Microsome Clearance,[1],<6.15 mL/min/kg
same,EC50,human TLR7; [2],0.023 µM
"CCS(=N)(=O)c1nc(N)c2[nH]c(=O)n(Cc3ccc(F)cc3)c2n1 (centres unmarked) [Example 72, 6-Amino-2-(ethylsulfonimidoyl)-9-[(4-fluorophenyl)methyl]-7H-purin-8-one]",solubility thermodynamic,LYSA solubility,152 µg/mL
same,Human Liver Microsome Clearance,[1],<6.15 mL/min/kg
